Assay: PANTAX phase Ib: safety, DLT and MTD of SCO-101 with Gem and Nab
Type: in vivo
Protocol: ORR, clinical benefit rate (CBR), median progression free survival (mPFS), and mOS were included as secondary end points.
Patients were recruited at four centers, two in Denmark and two in Germany.
Study treatment is illustrated in Fig. 1. […] Chemotherapy with Gem and Nab was given days 6, 13, and 20 in each cycle. […] During the first cycle, patients received treatment with chemotherapy at a dose corresponding to 80% of the recommended dose, i.e., 100 mg/m^2 Nab and 800 mg/m^2 Gem given as infusions over 30 min. […] The dose of chemotherapy was further adjusted to the patient´s tolerability in accordance with the chemotherapy-product monographs. Standard antiemetics were allowed as was the use of granulocyte colony-stimulating factor (G-CSF) in case of treatment-induced neutropenia.
Toxicity was assessed at baseline and weekly at days 1, 6, 13, and 20 before each treatment.

[1] = 50 mg SCO-101 (cohort 1, 3 patients) + Gem/Nab, any CTC-AE grade
[2] = 50 mg SCO-101 (cohort 1, 3 patients) + Gem/Nab, grade ≥ 3
[3] = 100 mg SCO-101 (cohort 2, 3 patients) + Gem/Nab, any CTC-AE grade
[4] = 150 mg SCO-101 (cohort 3, 6 patients) + Gem/Nab, any CTC-AE grade
[5] = 150 mg SCO-101 (cohort 3, 6 patients) + Gem/Nab, grade ≥ 3
[6] = 200 mg SCO-101 (cohort 4, 6 patients) + Gem/Nab, any CTC-AE grade
[7] = 250 mg SCO-101 (cohort 5, 4 patients) + Gem/Nab, any CTC-AE grade
[8] = 250 mg SCO-101 (cohort 5, 4 patients) + Gem/Nab, grade ≥ 3
[9] = 22 patients, all dose levels, with Gem and Nab
[10] = sum of cohorts (22 patients) + Gem/Nab, any CTC-AE grade
[11] = sum of cohorts (22 patients) + Gem/Nab, grade ≥ 3

O=C(Nc1cc(C(F)(F)F)cc(C(F)(F)F)c1)Nc1ccc(Br)cc1-c1nnn[nH]1 [SCO-101]
Alopecia, patients with treatment-related AE [1]: 2
Athralgia, patients with treatment-related AE [1]: 1
Chills, patients with treatment-related AE [1]: 1
Diarrhea, patients with treatment-related AE [1]: 3
Dizziness, patients with treatment-related AE [1]: 1
Fatigue, patients with treatment-related AE [1]: 3
Headache, patients with treatment-related AE [1]: 1
Hypertension, patients with treatment-related AE [1]: 1
Nail disorder, patients with treatment-related AE [1]: 1
Nausea, patients with treatment-related AE [1]: 3
Pain, patients with treatment-related AE [1]: 2
Paraestesia, patients with treatment-related AE [1]: 1
Rash, patients with treatment-related AE [1]: 2
↑B-bilirubin, patients with treatment-related AE [1]: 2
↑B-lactate, patients with treatment-related AE [1]: 1
↓B-hemoglobin, patients with treatment-related AE [1]: 2
↓B-lymphocytes, patients with treatment-related AE [1]: 3
↓B-neutrophils, patients with treatment-related AE [1]: 3
↓B-thrombocytes, patients with treatment-related AE [1]: 3
Chills, patients with treatment-related AE [2]: 1
Hypertension, patients with treatment-related AE [2]: 1
↑B-lactate, patients with treatment-related AE [2]: 1
↓B-lymphocytes, patients with treatment-related AE [2]: 2
↓B-neutrophils, patients with treatment-related AE [2]: 3
Alopecia, patients with treatment-related AE [3]: 2
Candidiasis, patients with treatment-related AE [3]: 1
Diarrhea, patients with treatment-related AE [3]: 3
Dysgeusia, patients with treatment-related AE [3]: 1
Fatigue, patients with treatment-related AE [3]: 1
Nail disorder, patients with treatment-related AE [3]: 1
Nausea, patients with treatment-related AE [3]: 3
Oedema, patients with treatment-related AE [3]: 1
Paraestesia, patients with treatment-related AE [3]: 2
Rash, patients with treatment-related AE [3]: 2
Stomatitis, patients with treatment-related AE [3]: 1
↑B-bilirubin, patients with treatment-related AE [3]: 1
↓B-hemoglobin, patients with treatment-related AE [3]: 1
↓B-neutrophils, patients with treatment-related AE [3]: 1
Paraestesia, patients with treatment-related AE (100 mg SCO-101 (cohort 2, 3 patients) + Gem/Nab, grade ≥ 3): 1
Alopecia, patients with treatment-related AE [4]: 2
Athralgia, patients with treatment-related AE [4]: 1
Candidiasis, patients with treatment-related AE [4]: 1
Constipation, patients with treatment-related AE [4]: 1
Diarrhea, patients with treatment-related AE [4]: 3
Fatigue, patients with treatment-related AE [4]: 2
Headache, patients with treatment-related AE [4]: 1
Jaundice, patients with treatment-related AE [4]: 1
Nausea, patients with treatment-related AE [4]: 2
Pain, patients with treatment-related AE [4]: 1
Rash, patients with treatment-related AE [4]: 1
Stomatitis, patients with treatment-related AE [4]: 2
TTP, patients with treatment-related AE [4]: 1
Vomitting, patients with treatment-related AE [4]: 2
↑B-bilirubin, patients with treatment-related AE [4]: 2
↓B-hemoglobin, patients with treatment-related AE [4]: 4
↓B-neutrophils, patients with treatment-related AE [4]: 1
↓B-thrombocytes, patients with treatment-related AE [4]: 1
Fatigue, patients with treatment-related AE [5]: 1
Jaundice, patients with treatment-related AE [5]: 1
TTP, patients with treatment-related AE [5]: 1
↑B-bilirubin, patients with treatment-related AE [5]: 1
↓B-hemoglobin, patients with treatment-related AE [5]: 2
blood bilirubin in the DLT case (150 mg SCO-101, one patient): 24 µmol/L
Alopecia, patients with treatment-related AE [6]: 4
Constipation, patients with treatment-related AE [6]: 1
Diarrhea, patients with treatment-related AE [6]: 2
Dizziness, patients with treatment-related AE [6]: 1
Dysgeusia, patients with treatment-related AE [6]: 1
Fatigue, patients with treatment-related AE [6]: 4
Headache, patients with treatment-related AE [6]: 1
Jaundice, patients with treatment-related AE [6]: 1
Loss of appetite, patients with treatment-related AE [6]: 2
Nausea, patients with treatment-related AE [6]: 3
Oedema, patients with treatment-related AE [6]: 1
Pain, patients with treatment-related AE [6]: 2
Paraestesia, patients with treatment-related AE [6]: 1
Rash, patients with treatment-related AE [6]: 2
Stomatitis, patients with treatment-related AE [6]: 4
Vomitting, patients with treatment-related AE [6]: 1
↑B-bilirubin, patients with treatment-related AE [6]: 4
↓B-hemoglobin, patients with treatment-related AE [6]: 3
↓B-neutrophils, patients with treatment-related AE [6]: 1
↓B-thrombocytes, patients with treatment-related AE [6]: 2
↓B-neutrophils, patients with treatment-related AE (200 mg SCO-101 (cohort 4, 6 patients) + Gem/Nab, grade ≥ 3): 1
Candidiasis, patients with treatment-related AE [7]: 1
Constipation, patients with treatment-related AE [7]: 1
Dysgeusia, patients with treatment-related AE [7]: 1
Fatigue, patients with treatment-related AE [7]: 2
Jaundice, patients with treatment-related AE [7]: 1
Nausea, patients with treatment-related AE [7]: 2
Paraestesia, patients with treatment-related AE [7]: 3
Rash, patients with treatment-related AE [7]: 1
↑B-bilirubin, patients with treatment-related AE [7]: 2
↓B-hemoglobin, patients with treatment-related AE [7]: 1
↓B-neutrophils, patients with treatment-related AE [7]: 1
↓B-thrombocytes, patients with treatment-related AE [7]: 2
↓B-neutrophils, patients with treatment-related AE [8]: 1
↓B-thrombocytes, patients with treatment-related AE [8]: 2
cases of clinical jaundice associated with bilirubin elevation (22 patients, all dose levels): three
patients with SAEs (nineteen SAEs) (22 patients, all dose levels): 11 patients
suspected unexpected serious adverse reactions (SUSARs) (22 patients, all dose levels): No suspected unexpected serious adverse reactions
cases with elevation of blood bilirubin [9]: 55%
patients with a SCO-101-related AE grade 4 (thrombocytopenia) [9]: 9%
maximum tolerated dose (MTD) (SCO-101 daily for 6 days, bi-weekly schedule, with 80% dose of Gem and Nab, PDAC patients): 200 mg
dose-limiting toxicities (DLTs), first cycle (dose level 3, 150 mg SCO-101, six patients, with Gem and Nab): One
dose-limiting toxicities (DLTs), first cycle (dose level 4, 200 mg SCO-101, with Gem and Nab): No DLTs
dose-limiting toxicities (DLTs), first cycle (dose level 5, 250 mg SCO-101, thrombocytopenia AE grade 4, with Gem and Nab): two
time to resolution of bilirubin elevation (not accompanied by biochemical hepatotoxicity): ≤ 1 week
SAEs deemed related to SCO-101 (of nineteen SAEs, transiently increased blood bilirubin AE grade 3 at 150 mg SCO-101): one
Alopecia, patients with treatment-related AE [10]: 10
Athralgia, patients with treatment-related AE [10]: 2
Candidiasis, patients with treatment-related AE [10]: 3
Chills, patients with treatment-related AE [10]: 1
Constipation, patients with treatment-related AE [10]: 3
Diarrhea, patients with treatment-related AE [10]: 11
Dizziness, patients with treatment-related AE [10]: 2
Dysgeusia, patients with treatment-related AE [10]: 3
Fatigue, patients with treatment-related AE [10]: 12
Headache, patients with treatment-related AE [10]: 3
Hypertension, patients with treatment-related AE [10]: 1
Jaundice, patients with treatment-related AE [10]: 3
Loss of appetite, patients with treatment-related AE [10]: 2
Nail disorder, patients with treatment-related AE [10]: 2
Nausea, patients with treatment-related AE [10]: 13
Oedema, patients with treatment-related AE [10]: 2
Pain, patients with treatment-related AE [10]: 5
Paraestesia, patients with treatment-related AE [10]: 7
Rash, patients with treatment-related AE [10]: 8
Stomatitis, patients with treatment-related AE [10]: 7
TTP, patients with treatment-related AE [10]: 1
Vomitting, patients with treatment-related AE [10]: 3
↑B-lactate, patients with treatment-related AE [10]: 1
↓B-hemoglobin, patients with treatment-related AE [10]: 11
↓B-lymphocytes, patients with treatment-related AE [10]: 3
↓B-neutrophils, patients with treatment-related AE [10]: 7
↓B-thrombocytes, patients with treatment-related AE [10]: 8
Chills, patients with treatment-related AE [11]: 1
Fatigue, patients with treatment-related AE [11]: 1
Hypertension, patients with treatment-related AE [11]: 1
Jaundice, patients with treatment-related AE [11]: 1
Paraestesia, patients with treatment-related AE [11]: 1
TTP, patients with treatment-related AE [11]: 1
↑B-lactate, patients with treatment-related AE [11]: 1
↓B-hemoglobin, patients with treatment-related AE [11]: 2
↓B-lymphocytes, patients with treatment-related AE [11]: 2
↓B-neutrophils, patients with treatment-related AE [11]: 5
↓B-thrombocytes, patients with treatment-related AE [11]: 2
